The results in this text go back to ChEMBL document CHEMBL4138214, “Urokinase receptor derived peptides as potent inhibitors of the formyl peptide receptor type 1-triggered cell migration” (Eur J Med Chem, 2018).

What all share (format): cell-based
For data set [1], the species on record is Rattus norvegicus. The data set can be described thus: Antagonist activity at FPR1 in rat RBL-2H3/ETFR cells assessed as inhibition of fMLF-induced cell migration at 10 nM after 6 hrs by RTCA relative to fMLF.
Data set [2] can be described thus: Induction of cell migration in rat RBL2H3/ETFR cells stably expressing FPR1 at 10 nM after 6 hrs by RTCA. The settings on record: 0.01 µM.
Data set [3] is filed under the species Rattus norvegicus. The data set can be described thus: Inhibition of FITC-fMLF induced FPR1 internalization in rat RBL-2H3/ETFR cells at 10 uM preincubated for 30 mins followed by agonist addition measured after 30 mins by fluorescence assay.
For another data set, the system named is RBL-2H3. The data set can be described thus: Induction of cell migration in rat RBL2H3 cells at 10 nM after 6 hrs by RTCA. The settings on record: rbl-2h3, 6 h, 0.01 µM.
The species named for data set [4] is Rattus norvegicus. The data set can be described thus: Inhibition of FITC-fMLF induced FPR1 internalization in rat RBL-2H3/ETFR cells at 10 uM preincubated for 30 mins followed by agonist addition measured after 30 mins by confocal fluorescent microscopy.
The nature of data set [5]: (§1) Antagonist activity at FPR1 in rat RBL-2H3/ETFR cells assessed as inhibition of fMLF-induced cell migration after 4 hrs by RTCA relative to fMLF.
The species named for data set [6] is Rattus norvegicus. Described as §1.
Where [7] appears, read: Rattus norvegicus, RBL-2H3, 4 h, read-out: IC50.

Active and inactive are the calls of the source. No cut-off for these calls is given here. Square brackets hold non-standard residues; d marks the D form. Peptide text beside a SMILES is read from it. 1Nal = N[C@@H](Cc1cccc2ccccc12)C(=O)O; 2Nal = N[C@@H](Cc1ccc2ccccc2c1)C(=O)O; pS = N[C@@H](COP(=O)(O)O)C(=O)O

With `N=C(N)NCCC[C@H](NC(=O)[C@H](Cc1ccc(O)cc1)NC(=O)[C@H](COP(=O)(O)O)NC(=O)[C@H](CO)NC(=O)[C@@H](N)CCCNC(=N)N)C(N)=O` (H-RS[pS]YR-NH2), in the data set filed under Rattus norvegicus [1], the inhibition came to 0%. Moreover, the Activity result (in data set [2]; in the data set on RBL-2H3) was “Non-Toxic” in each case. Further, the inhibition result in the data set listed under Rattus norvegicus [3] and in the data set listed under Rattus norvegicus [4] was “inactive” each time.
Take `N=C(N)NCCC[C@H](NC(=O)[C@H](COP(=O)(O)O)NC(=O)[C@H](CCCNC(=N)N)NC(=O)[C@@H](N)CO)C(=O)N[C@@H](Cc1ccc(O)cc1)C(N)=O` (H-SR[pS]RY-NH2): the inhibition in the data set listed under Rattus norvegicus [1] and in the data set listed under Rattus norvegicus [3] was 67% each time. Besides, the Activity entry (in data set [2]; with RBL-2H3) was “Non-Toxic” each time. Besides, the IC50 entry in data set [5] was “Dose-dependent effect”; in data set [5] (setting [7]), 0.1 pM. The inhibition entry in the data set listed under Rattus norvegicus [4] is “Active”.
In the case of `N=C(N)NCCC[C@H](NC(=O)[C@H](CO)NC(=O)[C@H](CCCNC(=N)N)NC(=O)[C@@H](N)COP(=O)(O)O)C(=O)N[C@@H](Cc1ccc(O)cc1)C(N)=O` (H-[pS]RSRY-NH2), the inhibition in the data set listed under Rattus norvegicus [1] stood at 58%. The Activity entry (in data set [2]; in the data set with RBL-2H3) was “Non-Toxic” throughout.
Regarding `N=C(N)NCCC[C@@H]1NC(=O)[C@H](CCC(=O)O)NC(=O)[C@H](CCCNC(=N)N)NC(=O)[C@H](Cc2ccc(O)cc2)NC(=O)[C@H](CCC(=O)O)NC1=O` (cyclo(EREYR)), the inhibition in the data set listed under Rattus norvegicus [1] and in the data set listed under Rattus norvegicus [3] was 61% in each case. The Activity entry (in data set [2]; in the data set with RBL-2H3) was “Non-Toxic” each time.
As to `N=C(N)NCCC[C@@H]1NC(=O)[C@H](CCC(=O)O)NC(=O)[C@H](CCCNC(=N)N)NC(=O)[C@H](Cc2ccccc2)NC(=O)[C@H](CO)NC1=O` (cyclo(ERSFR)), in the data set filed under Rattus norvegicus [1], the inhibition came to 20%. For the same compound, the Activity entry (in data set [2]; in the data set with RBL-2H3) was “Non-Toxic” throughout. Besides, the inhibition result in the data set filed under Rattus norvegicus [3] was “Active”.
For the compound `N=C(N)NCCC[C@@H]1NC(=O)[C@H](CCC(=O)O)NC(=O)[C@H](CCCNC(=N)N)NC(=O)[C@H](Cc2c[nH]c3ccccc23)NC(=O)[C@H](CO)NC1=O` (cyclo(ERSWR)), the inhibition in the data set filed under Rattus norvegicus [1] is 0%. Moreover, the Activity entry (in data set [2]; in the data set with RBL-2H3) was “Non-Toxic” each time. The inhibition entry in the data set listed under Rattus norvegicus [3] is “inactive”.
For `N=C(N)NCCC[C@@H]1NC(=O)[C@H](CCC(=O)O)NC(=O)[C@H](CCCNC(=N)N)NC(=O)[C@H](Cc2ccc(O)cc2)NC(=O)[C@H](CO)NC1=O` (cyclo(ERSYR)), the inhibition worked out at 49% in the data set filed under Rattus norvegicus [1] and 55% in the data set filed under Rattus norvegicus [3]. Moreover, the Activity entry (in data set [2]; in the data set on RBL-2H3) was “Non-Toxic” throughout.
On to `N=C(N)NCCC[C@@H]1NC(=O)[C@H](CO)NC(=O)[C@H](CCCNC(=N)N)NC(=O)[C@H](Cc2ccc(O)cc2)NC(=O)[C@H](CCC(=O)O)NC1=O` (cyclo(EYRSR)), for which the inhibition in the data set listed under Rattus norvegicus [1] was 34%. The Activity result (in data set [2]; with RBL-2H3) was “Non-Toxic” in each case.
On to `N=C(N)NCCC[C@@H]1NC(=O)[C@H](CO)NC(=O)[C@H](CO)NC(=O)[C@H](Cc2ccc(O)cc2)NC(=O)[C@H](CCCNC(=N)N)NC1=O` (cyclo(RRYSS)), for which the inhibition in the data set filed under Rattus norvegicus [1] stood at 0%. Further, the Activity entry (in data set [2]; in the data set on RBL-2H3) was “Non-Toxic” in each case. Also, the inhibition entry in the data set filed under Rattus norvegicus [3] and in the data set filed under Rattus norvegicus [4] was “inactive” each time.
As for `N=C(N)NCCC[C@@H]1NC(=O)[C@H](CO)NC(=O)[C@H](CCCNC(=N)N)NC(=O)[C@H](Cc2ccc(O)cc2)NC(=O)[C@H](CO)NC1=O` (cyclo(RSRSY)), the inhibition in the data set listed under Rattus norvegicus [1] was 75%; in the data set filed under Rattus norvegicus [6], “Dose-dependent effect”. For the same compound, the Activity result (in data set [2]; in the data set with RBL-2H3) was “Non-Toxic” throughout. The IC50 in data set [5] (setting [7]) was 0.1 pM. The inhibition result in the data set filed under Rattus norvegicus [3] and in the data set filed under Rattus norvegicus [4] was “Active” each time.
As for `N=C(N)NCCC[C@@H]1NC(=O)[C@H](CO)NC(=O)[C@H](CCCNC(=N)N)NC(=O)[C@H](Cc2ccc(O)cc2)NC(=O)[C@H](COP(=O)(O)O)NC1=O` (cyclo(RSR[pS]Y)), the inhibition in the data set listed under Rattus norvegicus [1] came to 31%. Also, the Activity result (in data set [2]; with RBL-2H3) was “Non-Toxic” in each case.
Consider `N=C(N)NCCC[C@@H]1NC(=O)[C@H](COP(=O)(O)O)NC(=O)[C@H](CCCNC(=N)N)NC(=O)[C@H](Cc2ccc(O)cc2)NC(=O)[C@H](CO)NC1=O` (cyclo(RSYR[pS])), for which the inhibition in the data set filed under Rattus norvegicus [1] worked out at 36%. Also, the Activity entry (in data set [2]; in the data set with RBL-2H3) was “Non-Toxic” throughout.
As for `N=C(N)NCCC[C@@H]1NC(=O)[C@H](CCC(=O)O)NC(=O)[C@H](CCCNC(=N)N)NC(=O)[C@H](Cc2cccc3ccccc23)NC(=O)[C@H](CO)NC1=O` (cyclo([1Nal]RERS)), the inhibition in the data set listed under Rattus norvegicus [1] was 43%; in the data set filed under Rattus norvegicus [3], 62%. Moreover, the Activity entry (in data set [2]; in the data set on RBL-2H3) was “Non-Toxic” throughout.
Take `N=C(N)NCCC[C@@H]1NC(=O)[C@H](CCC(=O)O)NC(=O)[C@H](CCCNC(=N)N)NC(=O)[C@H](Cc2ccc3ccccc3c2)NC(=O)[C@H](CO)NC1=O` (cyclo([2Nal]RERS)): the inhibition in the data set listed under Rattus norvegicus [1] was determined as 23%. Besides, the Activity entry (in data set [2]; in the data set with RBL-2H3) was “Non-Toxic” each time. Moreover, the inhibition result in the data set listed under Rattus norvegicus [3] was “Active”.
Regarding `CSCC[C@H](NC=O)C(=O)N[C@@H](CC(C)C)C(=O)N[C@@H](Cc1ccccc1)C(=O)O` [N-FORMYLMETHIONYL-LEUCYLPHENYLALANINE], the Activity entry in data set [2] is recorded as “Toxic”. The inhibition entry in the data set listed under Rattus norvegicus [3] and in the data set listed under Rattus norvegicus [4] was “Active” each time.
For the compound H-SRSRY-NH2, the inhibition entry in the data set filed under Rattus norvegicus [3] was “Active”.

As usually defined, the inhibition is how much of the control response was suppressed. As usually defined, the IC50 is the midpoint of a concentration-inhibition curve.
